Reference: patent US20170064966A1, “ANTIMICROBIAL COMPOSITIONS AND METHODS AND USES THEREOF” (BAR ILAN UNIVERSITY, priority 2015, published 2017)
Positions count from the first letter of the chain named. Names may count otherwise. Read-outs that look alike come from different tables or passages of the source. Non-standard residues stand in square brackets, D forms with d. No end group written: not given here.

How the values were obtained:
PA biofilm formation = test: Static biofilm model with N′-loop derived peptides (crystal violet); conditions: for anti-biofilm activity / inhibition of PA biofilm formation: peptides 1-6 at 0.01, 0.05 and 0.1 mM, FIG. 10B
Method: The static biofilm model was used to assess the ability of N′-loop derived peptides to reduce PA biofilm formation. Briefly, PA wild type bacteria were grown over night in M9 medium (20 mM NH4Cl; 12 mM Na2HPO4; 22 mM KH2PO4; 8.6 mM NaCl; 1 mM MgSO4; 1 mM CaCl2; 11 mM Dextrose) at 37 C. Following growth cells were diluted to a final concentration of 5*10^7 in M9 medium contacting 1/10 the phosphate concentration. 100 microliter of the bacterial suspension was transferred to each well of 96 wells plate. The six tested peptides were added at different concentrations 0.01, 0.05 and 0.1 mM. The plate was then incubated for 24 h at 37° C. to allow biofilm development. After incubation the medium was removed and the wells were carefully washed twice with sterile ddsH2O to remove planktonic bacteria. Next 150 microliter of 1% crystal violet (w/v) was added to each well in order to stain the biofilm cells. The stain was allowed to incubate for 15 min after which the wells were washed again with ddsH2O. The stain attached to the biofilm was then extracted by adding 200 microliter ethanol (95%). The biofilm biomass was quantified by reading the absorbance at 595nm using an ELISA plate reader.

[1] = tested on: P. aeruginosa strains PAO1, PA14 and clinical isolate DK2; test: Flow cell biofilm experiment in the presence of inhibitory peptide
Method: Bacterial strains (Pseudomonas aeruginosa strains PA14 and DK2) containing the plasmid pUCP-GFP inserted to bacterial cells by electroporation (pUCP18 that constitutionally expresses the GFP under the lac promoter), were inoculated from −80° C. stock into 2 mL TSB containing 300 μg/mL Carb (to maintain the pUCP-GFP plasmid) and grown overnight at 37° C. with agitation. The next day, bacteria were diluted to 0.05 OD (595 nm) in 1% TSB containing the antibiotics and loaded onto 6 channel 1μ-Slide I^0.4 Luer uncoated (Ibidi). The slide was connected to a flow cell containing fresh 1% TSB with 0.05 Mm, 0.1 mM peptides or without peptides. Fresh media flowed through the slide by a pump at 10 mL/h (2 rpm). Bacteria were grown in the slide for 48 hours at 37° C. After 48 hours, 3 representative pictures from the beginning and the middle of the slide, were taken using SP8 confocal HyD microscope (Leica). Pictures were analyzed by Imaris software (version 7.2.2).

[2] = format: binding; conditions: P^32-labeled phosphate, pH 7.5, FIG. 3C
[3] = measured under similar pH conditions, ref (18); read-out: phosphate binding (KD) reported for PstS orthologs; cited from earlier work

## modified peptide-3: enantiomer of peptide-3 having the N-terminal Ala and C-terminal Glu residues in the D-form (SEQ ID NO. 56) ([dA]IDPALP[dE])
PA biofilm formation; 0.1 millimolar modified peptide 3, FIG. 10C
  inhibition of PA biofilm formation: efficiently inhibited biofilm formation
[1]; 0.1 mM in media, 48 h, strains PAO1, PA14, DK2, FIG. 11A
  biofilm formation (biovolume): significantly reduces the biofilm formation
[1]; strains PAO1, PA14, DK2, 48 h, FIG. 11B
  biofilm formation phenotype, confocal microscope images: changes the biofilm formation phenotype of all PA strains examined

## AIDPALPE
PA biofilm formation
  anti-biofilm activity / inhibition of PA biofilm formation: inhibits most effectively biofilm formation
PA biofilm formation; listed as peptide 3
  anti-biofilm activity / inhibition of PA biofilm formation: most effective peptide

B1: wild-type PstS: periplasmic phosphate-binding subunit of the P. aeruginosa Pst transporter, purified from E. coli (protein)
chain: MKLKRLMAALTFVAAGVGAASAVAAIDPALPEYQKASGVSGNLSSVGSDTLANLMTMWAEEYKRLYPNVNIQIQAAGSSTAPPALTEGTANLGPMSRKMKDVELQAFEQKYGYKPTAVPVAVDALAIFVHKDNPIKGLTMQQVDAIFSATRLCGSKQDVKTWGDLGLTGDWAKKPVQLFGRNSVSGTYGYFKEEALCKGDFRPNVNEQPGSASVVQSVSQSLNGIGYSGIGYKTASVKTVALAKKEGAAFVEDNEQNALNGTYPLSRFLYVYVNKAPNKPLDPLEAQFLKLVLSKTGQQVVVKDGYIPLPAKVAEKAIKELGL
modifications: P.aeruginosa PstS - accession number NP_254056.1
[2]; read-out: dissociation constant (KD) for PO4
  Kd: 840 ± 120 nM

B2: S96E (protein)
chain: B1 chain with S96E
modifications: The S96E PstS mutant
[2]
  dissociation constant (KD) for PO4: very weak or no binding

B3: E. coli PstS: PstS ortholog from E. coli, literature value (18) (protein, UniProt P0AG82 26-346, looked up)
Phosphate-binding protein PstS: EASLTGAGATFPAPVYAKWADTYQKETGNKVNYQGIGSSGGVKQIIANTVDFGASDAPLSDEKLAQEGLFQFPTVIGGVVLAVNIPGLKSGELVLDGKTLGDIYLGKIKKWDDEAIAKLNPGLKLPSQNIAVVRRADGSGTSFVFTSYLAKVNEEWKNNVGTGSTVKWPIGLGGKGNDGIAAFVQRLPGAIGYVEYAYAKQNNLAYTKLISADGKPVSPTEENFANAAKGADWSKTFAQDLTNQKGEDAWPITSTTFILIHKDQKKPEQGTEVLKFFDWAYKTGAKQANDLDYASLPDSVVEQVRAAWKTNIKDSSGKPLY
[3]
  Kd: ~3000 nM
